`O=C(Nc1cc(Cl)cc(Cl)c1)c1cccc(Cl)c1O` showed a melting point of 255 to 256 °C.

Consider `COc1ccc(CNC(=O)C(C)=NNc2ccc(Cl)cc2)cc1`, for which the melting point fell in the range of 156 to 158 °C.

With `Cc1c(NC(=O)CC(CSC(=O)[C@@H](C)NC(=O)C2CCCCC2)c2ccccc2)cccc1C(=O)O` (stereo not given in full), the melting point is 175 to 180 °C.

For the compound `S=C1CNc2ccccc2CN1`, the melting point lay within 150 to 153 °C.

`Cc1c(-c2ccc(O)cc2)n(Cc2ccc(/C=C/C(N)=O)cc2)c2ccc(O)cc12` had a melting point of 161 to 163 °C.

For the compound `CC(C)CCNC(=O)c1c(N)cc(Cl)cc1Cl`, the melting point fell in the range of 148 to 150 °C.

Compound `COC(=O)Cn1c(=O)n(C)c(=O)n(-c2cc(F)ccc2[N+](=O)[O-])c1=O` came in with a melting point of 122 °C.

On to `Cc1ccnc2c1N=C(N)c1cccnc1N2C1CC1`, for which the melting point is 242 to 244 °C.

Compound `C=C(c1ccc(Br)cc1)c1ccc(OCCCC)cc1` returned a melting point of 71.8 to 73 °C.

As to `NS(=O)(=O)c1ccc2c(c1)C(=O)c1ccccc1C2=O`, the melting point was in the range of 258 to 261 °C.

`Cc1ccc(S(=O)(=O)N2CCC[C@H]2C(=O)N[C@@H](Cc2ccc(OCCN3CCOCC3)cc2)C(=O)O)cc1`: the melting point lay in the range of 99 to 101 °C.

The compound `O=c1[nH]cc(Cl)cc1Br` showed a melting point of 170 to 173 °C.

As to `Cc1ccccc1N1CCN(CCn2c(=O)[nH]c3sccc3c2=O)CC1`, the melting point fell in the range of 191 to 193 °C.

`O=C(c1c(F)cccc1F)C1CC1c1ccc(Br)cc1` (stereo not given) yielded a melting point of 64 to 65 °C.

Compound `COCCSC(F)(F)C(O)(Cn1cncn1)c1ccc(F)cc1F` (stereo not given) returned a melting point of 80 to 81 °C.

Compound `O=C1CCCCN1CCc1c[nH]c2ccc(Cl)cc12` yielded a melting point of 155 °C.

Compound `COc1cc(CCC2(CCc3ccc(O)c(OC)c3)CC(O)=C(Sc3cc(C)c(OCCO)cc3C(C)(C)C)C(=O)O2)ccc1O` displayed a melting point of 76 to 82 °C.

`CCCn1c(=O)c2c(nc(C=Cc3cc(OC)c(OC)cc3S(N)(=O)=O)n2C)n(CCC)c1=O`: the melting point was 266 to 268 °C.

With `C[Si](C)(C)C#Cc1ccc(C=Cc2ccc(C#C[Si](C)(C)C)cc2)cc1`, the melting point was in the range of 207 to 208 °C.

For the compound `CCn1c(N)c(C(N)=O)c(=O)c2cnc(Nc3cccc(N4CCOCC4)c3)nc21`, the melting point amounted to 195 °C.

As for `Cn1c(=O)[nH]c(=O)n(-c2cc(N)c(F)cc2Cl)c1=O`, the melting point was 244 to 245 °C.

On to `CCCc1c(CC)[nH]c(C(=O)OCC)c1C`, for which the melting point lay within 86 to 87 °C.

For the compound `CC(=O)N1C(C)(C)CC(N2CCCCCC2=O)CC1(C)C`, the melting point is 104 to 108 °C.

As for `COc1cc(NC(C)=O)ccc1N1C(=O)C(C)(c2ccccc2Cl)c2cc(Cl)ccc21` (stereo not given), the melting point worked out at 83 °C.

The compound `Oc1nc(Cc2ccc(F)cc2F)ncc1F` displayed a melting point of 155 to 156 °C.

Turning to `COC(=O)c1cc2nc(C)n(C)c2cc1C(=O)OC`, the melting point lay within 147 to 148 °C.

`CCCCCCOc1ccc(-c2ncc(C#N)cn2)cc1`: the melting point lay in the range of 93.5 to 93.8 °C.

`C[C@@H]1CN(c2ccc(N/C=C3\C(=O)NC(=O)c4ccc(-c5ccoc5)cc43)cc2)C[C@H](C)N1C` came in with a melting point of 204 to 205 °C.

On to `COc1ccc(CC(C)NCC(O)c2cccc(Cl)c2F)cc1` (stereo not given), for which the melting point is 95 to 101 °C.

As to `CCCOc1c(I)cc(C(=O)CCC(=O)c2cc(OC)c(OC)c(OC)c2)cc1OC`, the melting point was in the range of 120 to 121 °C.

Compound `CCc1ccc(C2CCC(c3ccc(O)cc3)(c3ccc(O)cc3)CC2)cc1` displayed a melting point of 187 to 188 °C.

Take `O=C1c2ccc(OS(=O)(=O)C(F)(F)F)cc2CCC1Cc1ccccc1` (stereo not given): the melting point lay in the range of 52 to 53.7 °C.

Consider `Cc1ccc2c(c1)c(-c1ccc(F)cc1)c(C)n2C1CCN(CCN2CCNC2=O)CC1`, for which the melting point lay within 188 to 190 °C.

For `Cn1cc(-c2cccc(C(F)(F)F)c2)c(=O)c(-c2ccccc2Cl)c1`, the melting point fell in the range of 191 to 193 °C.

On to `CC(C)Nc1cccc(C2CN3CCSC3=N2)c1` (stereo not given), for which the melting point fell in the range of 47 to 51 °C.

Usually melting point stands for the temperature, or range, at which the solid turns liquid.

The values are drawn from a melting point compilation (Tetko et al.; mined from patent text by program, amines drawn as free bases though some values may be those of a salt).
